In this test the target is PHGDH (Homo sapiens (Human), UniProt O43175). In words: 3-Phosphoglycerate Dehydrogenase (PHGDH) Fluorescence Intensity Assay, run at two NAD/3-PG ratios: PHGDH_HIGH_NAD/3-PG (250 μM NAD/500 μM 3-PG) and PHGDH_500_NAD/3-PG (500 μM NAD/500 μM 3-PG). The format is biochemical.
[1] abbreviates: 250 μM NAD/500 μM 3-PG, read-out: IC50 (PHGDH_HIGH_NAD/3-PG).
The mark [2] stands for this setting: 500 μM NAD/500 μM 3-PG, read-out: IC50 (PHGDH_500_NAD/3-PG).

Read-outs that look alike come from different tables or passages of the source.

PHGDH, sequence (O43175 2-533 limits assumed): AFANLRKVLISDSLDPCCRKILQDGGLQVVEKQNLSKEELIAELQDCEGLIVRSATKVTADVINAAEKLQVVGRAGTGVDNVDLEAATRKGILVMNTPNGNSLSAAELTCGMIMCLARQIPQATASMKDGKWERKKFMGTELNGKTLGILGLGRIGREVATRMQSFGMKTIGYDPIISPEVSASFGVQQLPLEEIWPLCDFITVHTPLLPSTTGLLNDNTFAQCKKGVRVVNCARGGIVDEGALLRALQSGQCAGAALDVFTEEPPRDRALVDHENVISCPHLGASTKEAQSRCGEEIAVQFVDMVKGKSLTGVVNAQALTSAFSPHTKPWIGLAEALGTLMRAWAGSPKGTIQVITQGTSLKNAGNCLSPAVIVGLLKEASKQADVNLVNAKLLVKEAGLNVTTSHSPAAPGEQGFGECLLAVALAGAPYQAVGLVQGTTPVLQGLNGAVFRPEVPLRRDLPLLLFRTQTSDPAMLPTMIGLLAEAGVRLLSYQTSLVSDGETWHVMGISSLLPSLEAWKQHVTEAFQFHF

In the case of `Cc1cc(Cl)c2cc(C(=O)N[C@H](C)c3ccc([S+]([O-])CC(=O)O)cc3)n(C)c2c1` (stereo partly drawn) [Example 12-004, 2-{4-[(1R)-1-[(4-chloro-1,6-dimethyl-1H-indol-2-yl)formamido]ethyl]benzenesulfinyl}acetic acid], the IC50 by setting is: under setting [1], 11 nM; under setting [2], 18 nM. In the case of `Cc1cc(Cl)c2cc(C(=O)N[C@H](C)c3ccc([S@+]([O-])CC(=O)O)cc3)n(C)c2c1` [Example 12-005, 2-[(R)-4-[(1R)-1-[(4-chloro-1,6-dimethyl-1H-indol-2-yl)formamido]ethyl]benzenesulfinyl]acetic acid], the IC50 worked out at 17 nM under setting [1] and 28 nM under setting [2]. For `Cc1cc(Cl)c2cc(C(=O)N[C@H](C)c3ccc([S@@+]([O-])CC(=O)O)cc3)n(C)c2c1` [Example 12-006, 2-[(S)-4-[(1R)-1-[(4-chloro-1,6-dimethyl-1H-indol-2-yl)formamido]ethyl]benzenesulfinyl]acetic acid], the IC50 was 61 nM under setting [1] and 95 nM under setting [2]. Consider `Cc1cc(Cl)c2cc(C(=O)N[C@H](CO)c3ccc([S+]([O-])CC(=O)O)cc3)n(C)c2c1` (stereo partly drawn) [Example 12-007, 2-{4-[(1S)-1-[(4-chloro-1,6-dimethyl-1H-indol-2-yl)formamido]-2-hydroxyethyl]benzenesulfinyl}acetic acid], for which the IC50 is 8 nM under setting [1] and 11 nM under setting [2].

`Cc1cc2c(cc(C(=O)N[C@H](C)c3ccc([S+]([O-])CC(=O)O)cc3)n2C)c(Cl)c1Cl` (stereo partly drawn) [Example 12-008, 2-{4-[(1R)-1-[(4,5-dichloro-1,6-dimethyl-1H-indol-2-yl)formamido]ethyl]benzenesulfinyl}acetic acid]: the IC50 under setting [2] came to 8 nM. In the case of `Cc1cc2c(cc(C(=O)N[C@H](CO)c3ccc([S@+]([O-])CC(=O)O)cc3)n2C)c(F)c1F` [Example 12-009, 2-[(R)-4-[(1S)-1-[(4,5-difluoro-1,6-dimethyl-1H-indol-2-yl)formamido]-2-hydroxyethyl]benzenesulfinyl]acetic acid], the IC50 under setting [2] was found to be 32 nM. Turning to `Cc1cc2c(cc(C(=O)N[C@H](CO)c3ccc([S@@+]([O-])CC(=O)O)cc3)n2C)c(F)c1F` [Example 12-010, 2-[(S)-4-[(1S)-1-[(4,5-difluoro-1,6-dimethyl-1H-indol-2-yl)formamido]-2-hydroxyethyl]benzenesulfinyl]acetic acid], the IC50 under setting [2] was 10 nM. Consider `Cc1cc2c(cc(C(=O)N[C@H](CO)c3ccc([S@+]([O-])CC(=O)OC(C)C)cc3)n2C)c(Cl)c1Cl` [Example 13-001, propan-2-yl 2-[(R)-4-[(1S)-1-[(4,5-dichloro-1,6-dimethyl-1H-indol-2-yl)formamido]-2-hydroxyethyl]benzenesulfinyl]acetate], for which the IC50 reads like this: under setting [1], 204 nM; under setting [2], 305 nM. As for `Cc1cc2c(cc(C(=O)N[C@H](CO)c3ccc([S@@+]([O-])CC(=O)OC(C)C)cc3)n2C)c(Cl)c1Cl` [Example 13-002, propan-2-yl 2-[(S)-4-[(1S)-1-[(4,5-dichloro-1,6-dimethyl-1H-indol-2-yl)formamido]-2-hydroxyethyl]benzenesulfinyl]acetate], the IC50 is, setting by setting: under setting [1], 819 nM; under setting [2], 1020 nM. On to `Cc1cc2c(cc(C(=O)N[C@H](CO)c3ccc([S@@+]([O-])CC(=O)OC4CCOCC4)cc3)n2C)c(Cl)c1Cl` [Example 13-003, oxan-4-yl 2-[(S)-4-[(1S)-1-[(4,5-dichloro-1,6-dimethyl-1H-indol-2-yl)formamido]-2-hydroxyethyl]benzenesulfinyl]acetate], for which the IC50 under setting [2] was found to be 211 nM. On to `Cc1cc2c(cc(C(=O)N[C@H](CO)c3ccc([S@@+]([O-])CC(=O)OC(C)C)cc3)n2C)c(F)c1F` [Example 13-004, propan-2-yl 2-[(S)-4-[(1S)-1-[(4,5-difluoro-1,6-dimethyl-1H-indol-2-yl)formamido]-2-hydroxyethyl]benzenesulfinyl]acetate], for which the IC50 under setting [2] was determined as 690 nM.

The values above are taken from patent US11304929B2, “Tosylacetate based compounds and derivatives thereof as PHGDH inhibitors” (priority 2017, dated 2022).
